Values quoted from earlier work in paper PMC10017685 (Nature Communications, 2023).
Where two headings read alike, the source gives them in different places.

System: human erythrocytes
Parameters: method as in DBAASP
Settings: cited from earlier work
[1] = toxicity class label 1 or 0, meaning of the labels not given, DBAASP HC50 data, human erythrocytes, ref DBAASP

Sequence	Class (dedicated toxicity dataset used for toxicity classifier evaluation) [1]	Class (dedicated toxicity dataset used for toxicity classifier evaluation)
GWLDVAKKKGKAAFNVAKNFI [DBAASP_7674]	0	–
GWLPTFGKILRKAMQLGPKLIQPI [DBAASP_5715]	0	–
GWRTLLKKAEVKTVGKLALKHYL [DBAASP_1409]	0	–
HFKGTLVNLAKKIL [DBAASP_5016]	0	–
HFLGKLVNLAKKIL [DBAASP_5018]	0	–
HFLGTKVNLAKKIL [DBAASP_5020]	0	–
HFLGTLKNLAKKIL [DBAASP_5019]	0	–
HFLGTLVKLAKKIL [DBAASP_5021]	0	–
HFLGTLVNKAKKIL [DBAASP_5023]	0	–
HFLGTLVNLAKKIK [DBAASP_5026]	0	–
HFLGTLVNLAKKKL [DBAASP_5025]	0	–
HFLGTLVNLKKKIL [DBAASP_5024]	0	–
HFLKTLVNLAKKIL [DBAASP_5017]	0	–
HKLGTLVNLAKKIL [DBAASP_5015]	0	–
HWRRFWHR [DBAASP_12822]	0	–
IAGKIAKIAGKIAKIAGKIA [DBAASP_14993]	–	1
IAGKIAKIAGKIAKIAGKIAK [DBAASP_14998]	–	0
IAKIAGKIAKIAGKIA [DBAASP_14991]	0	–
IAKIAGKIAKIAGKIAK [DBAASP_14997]	–	0
IAKIAGKIAKIAGKIAKIAGKIA [DBAASP_14994]	1	–
IAKIAGKIAKIAGKIAKIAGKIAK [DBAASP_14999]	–	1
IFGAILPLALGALKNLIK [DBAASP_3892]	1	–
IFGAIWPLALGALKNLIK [DBAASP_9405]	1	–
IIKKIIKKIIKK [DBAASP_13883]	0	–
IIKKIIKKIIKKI [DBAASP_13881]	0	–
IKKIIKKI [DBAASP_10843]	0	–

Sequence	Class (dedicated toxicity dataset used for toxicity classifier evaluation) [1]	Class (dedicated toxicity dataset used for toxicity classifier evaluation)
IKKILSKIKKLL [DBAASP_10745]	0	–
IKKILSKIKKLLK [DBAASP_7154]	0	–
IKKIVSKIKKLL [DBAASP_7244]	0	–
IKKIVSKIKKLLK [DBAASP_7245]	0	–
IKKIVSKIKKVLK [DBAASP_7246]	0	–
IKKWWSKIKKLLK [DBAASP_7156]	0	–
IKNAKVCVYAVCVSHK [DBAASP_12238]	0	–
IKWKKLLRAAKRIL [DBAASP_2253]	0	–
ILGAILPLVSGLLSNKL [DBAASP_4393]	0	–
ILGKLLKTAAGLLSNL [DBAASP_4361]	1	–
ILGKLLKTAAKLLSNL [DBAASP_4365]	0	–
ILGKLLSTAAGLLKNL [DBAASP_4363]	0	–
ILGKLLSTAAGLLSKL [DBAASP_4364]	0	–
ILGKLLSTAAKLLSKL [DBAASP_4366]	1	–
ILGKLLSTAAKLLSNL [DBAASP_4362]	1	–
ILKKLLSTAAGLLSNL [DBAASP_4360]	0	–
ILPFKFPFFPFRR [DBAASP_4761]	0	–
ILPILGNLLNGLL [DBAASP_3402]	0	–
ILPILGNLLNSLL [DBAASP_3403]	0	–
ILPILSLIGGLL [DBAASP_3346]	0	–
ILPIRSLIKKLL [DBAASP_5721]	0	–
ILPWKWPWWPWRR [DBAASP_491]	0	–
ILPYKYPYYPYRR [DBAASP_4763]	0	–
INWIKIGKKIIASL [DBAASP_18234]	0	–
IPPFIKKVLTTVF [DBAASP_3483]	0	–
ITEVITILLNRLTDRLEK [DBAASP_13425]	0	–

Sequence	Class (dedicated toxicity dataset used for toxicity classifier evaluation) [1]	Class (dedicated toxicity dataset used for toxicity classifier evaluation)
ITKQITKQLNRQTKIQSK [DBAASP_13427]	0	–
KALWKTMLKKLGTMAL [DBAASP_10105]	0	–
KFKKLFKKLSPVFKRIVQRIKDFLR [DBAASP_13190]	0	–
KFKKVIWKSFL [DBAASP_13719]	0	–
KFLGTLVNLAKKIL [DBAASP_5014]	0	–
KGIVGMLGKLF [DBAASP_5480]	0	–
KIAGKIAKIAGKIA [DBAASP_10129]	–	0
KIAGKIAKIAGKIAKIAGKIA [DBAASP_691]	–	0
KIAKGALKALKIAKGALKAL [DBAASP_11229]	0	–
KIAKGALKALKIAKVALKAL [DBAASP_11228]	1	–
KIAKIAGKIAKIAGKIA [DBAASP_14992]	0	–
KIAKIAGKIAKIAGKIAKIAGKIA [DBAASP_14995]	1	–
KIAKVALKALKIAKGALKAL [DBAASP_9754]	0	–
KIAKVALKALKIAKVALKAL [DBAASP_9753]	0	–
KIALKALKALKALGKALKAL [DBAASP_11232]	1	–
KIFGAIWPLALGALKNLIK [DBAASP_7010]	1	–
KIGKALGKALKALGKALGKA [DBAASP_11230]	1	–
KIKWILKYWKWS [DBAASP_10700]	0	–
KIWFQNKKMKWKK [DBAASP_8802]	0	–
KIWFQNRRMKWKK [DBAASP_8800]	0	–
KKKKKKKKKGGGLLALLALLA [DBAASP_13727]	1	–
KKKLAKLKLGAKLKLKGKLGA [DBAASP_13729]	0	–
KKLFKKILKYL [DBAASP_197]	0	–
KKLFKKILKYLA [DBAASP_13463]	1	–
KKLIKKILKIL [DBAASP_5047]	0	–
KKVLKAAA [DBAASP_7361]	0	–

Sequence	Class (dedicated toxicity dataset used for toxicity classifier evaluation) [1]	Class (dedicated toxicity dataset used for toxicity classifier evaluation)
KKVLKAAA [DBAASP_7362]	0	–
KKVLKAAA [DBAASP_7365]	1	–
KKYLLPIVGNLLKSLL [DBAASP_7638]	0	–
KLALKLALKALKAALKLA [DBAASP_1030]	1	–
KLFKKLFK [DBAASP_17848]	0	–
KLGFENFLVKALKTVMHVPTSPLL [DBAASP_5711]	0	–
KLLGPLLKIAAKVGSNLL [DBAASP_4921]	0	–
KLLKFIKTLL [DBAASP_3151]	0	–
KLLKKAGKLLKKAGKLLKKAG [DBAASP_13728]	0	–
KLLKRIKKLL [DBAASP_3152]	0	–
KLLKRIKTLL [DBAASP_3149]	0	–
KLLKVIKKLL [DBAASP_3153]	0	–
KQIKIWFQNKKMKWKK [DBAASP_8799]	0	–
KQKLAKLKAKLQKLKQKLAKL [DBAASP_10912]	0	–
KRIVQRIKDFLR [DBAASP_146]	0	–
KRIVQRIKKWLR [DBAASP_6827]	0	–
KRRVRWIIW [DBAASP_17712]	0	–
KWAVRIIRKFIKGFIS [DBAASP_13726]	0	–
KWCFRVCYRGICYRRCR [DBAASP_2229]	–	0
KWCVYAYVKVKGVLVKYKKCW [DBAASP_2027]	0	–
KWFKIQLQIKKWKNKK [DBAASP_8806]	0	–
KWKLFKKIFKRIVQRIKDFLRN [DBAASP_9530]	0	–
KWKVFKKAEKMIRNIRNKIVK [DBAASP_11863]	0	–
KWKVFKKIEKMARNIRNKIVK [DBAASP_11864]	0	–
